Assay results: patent US11827639B2, “TDO2 and IDO1 inhibitors” (Genentech, Inc., priority 2017, dated 2023)
Read-outs that look alike come from different tables or passages of the source.

Legend:
IDO1 [1] = target: T1, IDO1 (Homo sapiens, UniProt P14902)
Description: (§1) The NFK GreenScreen™ (NTRC, Netherlands) uses a specific chemical probe that binds to N-Formylkynurenine (NFK), a product of tryptophan catabolism facilitated by IDO or TDO and causes fluorescence at 510 nm when excited at 410 nm. […] The assay is multiplexed with Cell Titer-Glo® (Promega) to determine if compounds are cytotoxic. […] Cells are counted on a Vi-Cell (Beckman Coulter). SW48 cells are diluted to 1×10^6 cells/ml in assay media. A172 cells are diluted to 0.24×10^6 cells/ml in assay media. […] 5 ul of assay media containing 1.2 mM tryptophan are added to the SW48 cells for a final concentration of 200 uM tryptophan in each well. 5 ul of assay media containing 600 uM tryptophan and 600 ng/ml IFNγ are added to the A172 cells for a final concentration of 100 uM tryptophan and 100 ng/ml IFNγ in each well. The final DMSO concentration is 0.5%. Cell plates are placed at room temperature in a closed TC hood with the blower off to allow cells to settle for approximately 30 min. Plates are then moved to an incubator set at 37° C., 5% CO2 for 24 hours. After the 24 hour compound incubation, 8 ul of NFK green reagent is added to each well with a Multidrop™ Combi dispenser (Thermo Scientific). Plates are sealed and incubated at 37° C., 5% CO2 for 5 hours, then read on a PHERAstar® (BMG labtech). Data are analyzed by normalizing to DMSO and high inhibitor controls. After the plates have been read for NFK green, 25 ul of Cell Titer-Glo® (Promega) are added to each well, incubated for 15 minutes at room temperature, and read on the Envision (Perkin Elmer). Cell Titer-Glo data are analyzed by normalizing to the DMSO controls. Four-parameter curve fitting is used and EC50 data are reported.

TDO2 [2] = target: T2, TDO2 (Homo sapiens, UniProt P48775); assay: TDO2 cell assay (NFK GreenScreen) in SW48 cells; details: read-out: TDO2 cell Fluor EC50, NFK GreenScreen fluorescence
Description: as §1

IDO1 [3] = target: T1, IDO1; assay: cell-based
Description: as §1

TDO2 [4] = target: T2, TDO2; assay: cell-based
Description: as §1

T1 sequence (P14902 whole entry): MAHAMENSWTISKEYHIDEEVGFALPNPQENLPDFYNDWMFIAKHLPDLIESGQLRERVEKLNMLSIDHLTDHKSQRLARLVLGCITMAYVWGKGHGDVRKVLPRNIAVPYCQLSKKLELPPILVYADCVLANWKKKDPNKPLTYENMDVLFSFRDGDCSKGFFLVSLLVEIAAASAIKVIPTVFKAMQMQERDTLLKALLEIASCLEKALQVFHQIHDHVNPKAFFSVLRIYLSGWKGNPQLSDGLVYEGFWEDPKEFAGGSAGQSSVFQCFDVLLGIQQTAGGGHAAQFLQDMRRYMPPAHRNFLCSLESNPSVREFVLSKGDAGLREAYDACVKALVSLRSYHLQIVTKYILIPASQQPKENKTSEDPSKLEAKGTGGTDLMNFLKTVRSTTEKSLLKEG
T2 sequence (P48775 whole entry): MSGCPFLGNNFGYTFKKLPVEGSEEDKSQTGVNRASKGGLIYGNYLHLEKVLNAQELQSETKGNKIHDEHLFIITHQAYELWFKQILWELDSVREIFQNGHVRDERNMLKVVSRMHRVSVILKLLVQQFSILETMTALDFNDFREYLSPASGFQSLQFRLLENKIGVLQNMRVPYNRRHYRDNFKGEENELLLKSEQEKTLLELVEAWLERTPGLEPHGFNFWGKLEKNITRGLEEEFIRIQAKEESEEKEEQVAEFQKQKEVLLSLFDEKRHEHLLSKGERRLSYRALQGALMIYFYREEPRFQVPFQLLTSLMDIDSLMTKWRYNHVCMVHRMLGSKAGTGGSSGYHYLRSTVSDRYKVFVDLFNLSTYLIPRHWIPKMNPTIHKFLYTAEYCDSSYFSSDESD

| Compound | EC50 (IDO1 [1]) | EC50 (TDO2 [2]) | EC50 (IDO1 [3]) | EC50 (TDO2 [4]) |
| --- | --- | --- | --- | --- |
| c1ccc2c(c1)-c1cncn1[C@H]2C1CCCCC1 [Example 19b] | 0.416 µM | 0.033 µM | – | – |
| CS(=O)(=O)N1CC2(CC(C3c4ccccc4-c4cncn43)C2)C1 (single isomer, unassigned) [Example 72a] | – | – | 3 µM | 0.73 µM |
| NS(=O)(=O)N1CC2(CC(C3c4ccccc4-c4cncn43)C2)C1 (centres unmarked) [Example 66, 6-(5H-imidazo[5,1-a]isoindol-5-yl)-2-azaspiro[3.3]heptane-2-sulfonamide] | – | – | 20 µM | 1.1 µM |
| CS(=O)(=O)N1CC2(CCC(C3c4ccccc4-c4cncn43)CC2)C1 (single isomer, unassigned) [Example 78b] | – | – | 1.4 µM | 2.5 µM |
| c1ccc2c(c1)-c1cncn1C2C1CCOCC1 (centres unmarked) [Example 14, 5-(tetrahydro-2H-pyran-4-yl)-5H-imidazo[5,1-a]isoindole] | – | – | 15 µM | 0.81 µM |
| c1ccc2c(c1)-c1cncn1C2C1CCC1 (centres unmarked) [Example 34, 5-cyclobutyl-5H-imidazo[5,1-a]isoindole] | – | – | 2.4 µM | 0.99 µM |
| C1=C(C2c3ccccc3-c3cncn32)CCn2cccc21 (centres unmarked) [Example 04, 5-(5,6-dihydroindolizin-7-yl)-5H-imidazo[5,1-a]isoindole] | – | – | 12 µM | 2.3 µM |
| CS(=O)(=O)c1ccc(C2c3ccccc3-c3cncn32)cc1 (centres unmarked) [Example 56, 5-(4-(methylsulfonyl)phenyl)-5H-imidazo[5,1-a]isoindole] | – | – | 4.6 µM | 0.64 µM |
| CC(C)(C)OC(=O)N1CC2(CCC(C3c4ccccc4-c4cncn43)CC2)C1 (centres unmarked) [Example 76, tert-butyl 7-(5H-imidazo[5,1-a]isoindol-5-yl)-2-azaspiro[3.5]nonane-2-carboxylate] | – | – | 0.14 µM | 1.8 µM |
| CS(=O)(=O)N1CC2C(C1)C2C1c2ccccc2-c2cncn21 (centres unmarked) [Example 93, 5-(3-(methylsulfonyl)-3-azabicyclo[3.1.0]hexan-6-yl)-5H-imidazo[5,1-a]isoindole] | – | – | 8.6 µM | 0.77 µM |
| c1ccc2c(c1)-c1cncn1C2C1CCc2ccncc2C1 (centres unmarked) [Example 46, 5-(5,6,7,8-tetrahydroisoquinolin-7-yl)-5H-imidazo[5,1-a]isoindole] | – | – | 2 µM | 0.027 µM |
| NS(=O)(=O)c1cccc(C2c3ccccc3-c3cncn32)c1 (single isomer, unassigned) [Example 07b] | – | – | 6.5 µM | 0.79 µM |
| NC(=O)c1cc(F)cc(C2c3ccccc3-c3cncn32)c1 (centres unmarked) [Example 51, 3-fluoro-5-(5H-imidazo[5,1-a]isoindol-5-yl)benzamide] | – | – | 3.1 µM | 0.12 µM |
| CC1(C)CC(C2c3ccccc3-c3cncn32)C1 (centres unmarked) [Example 67, 5-(3,3-dimethylcyclobutyl)-5H-imidazo[5,1-a]isoindole] | – | – | 0.9 µM | 0.21 µM |
| NS(=O)(=O)N1CCC(C2c3ccc(F)cc3-c3cncn32)CC1 (single isomer, unassigned) [Example 74b] | – | – | 4.8 µM | 0.064 µM |
| Fc1cc(F)cc(C2c3ccccc3-c3cncn32)c1 (centres unmarked) [Example 45, 5-(3,5-difluorophenyl)-5H-imidazo[5,1-a]isoindole] | – | – | 1.9 µM | 0.14 µM |
| Fc1cc(Cl)cc(C2c3ccccc3-c3cncn32)c1 (centres unmarked) [Example 40, 5-(3-chloro-5-fluorophenyl)-5H-imidazo[5,1-a]isoindole] | – | – | 3.8 µM | 0.29 µM |
| Fc1cccc(C2c3ccccc3-c3cncn32)c1 (centres unmarked) [Example 30, 5-(3-fluorophenyl)-5H-imidazo[5,1-a]isoindole] | – | – | 5 µM | 0.34 µM |
| c1ccc2c(c1)-c1cncn1C2C1CCC2(CC1)OCCO2 (centres unmarked) [Example 26, 5-(1,4-dioxaspiro[4.5]decan-8-yl)-5H-imidazo[5,1-a]isoindole] | – | – | 9.7 µM | 3.2 µM |
